Tested on: SIRPα signalling induced by Raji cells
Assay: Assay B: SIRPα signalling assay using Raji cells
Type: cell-based
Settings: Homo sapiens, 48 h compound incubation, Jurkat PathHunter SIRPaV1 reporter cells, read-out: Inhibition of SIRPα signalling induced by Raji cells: IC50
Description: (§1) Two cell types are independently used: the Raji cell line (lymphoblast-like human cell line derived from B lymphocytes from a Burkitt's lymphoma patient in 1963) and A549 cells (adenocarcinoma human alveolar basal epithelial cells).
(§2) Test compounds were dissolved in 100% DMSO and serially diluted into a white 384-well microtiter cell culture plate (PerkinElmer #60076780 in case of Raji assay; PDL-coated plates Greiner #781945 in case of A549 assay), 5000 Raji cells (ATCC #CC86) or 5000 A549 cells (ATCC #CCL-185) in Assay Complete Cell Plating reagent 30 (DiscoverX 93-0563R30B) were added per well. The assay plate was incubated for 48 h at 37° C., 95% humidity and 5% CO2. 15000 reporter cells (Jurkat PathHunter SIRPaV1, DiscoverX #93-1135C19) were added to each well, and the plate was incubated for 5 h at 37° C., 95% humidity and 5% CO2. Bioassay reagent 1 of the PathHunter Bioassay detection kit (DiscoverX 93-0001) was added to each well of the plate using a multichannel pipette followed by a 15 min incubation at room temperature. Afterwards bioassay reagent 2 was added followed by 60 min incubation at room temperature (incubation in the dark). The analysis of the data was performed using the luminescence signal generated by beta-galactosidase in the PathHunter reporter cell line. The luminescence measurement was done using a Pherastar Multi-Mode Reader. Dose-response curves & IC50 data were calculated with 4-parameter sigmoidal dose response formula.

IC50 [nM] | Compound
16 | Cn1cnnc1C1CCN(c2c(C#N)cc(F)cc2-c2cnc3nn(C(C)(C)C)c(Cl)c3c2)CC1 [Example 26]
19 | Cn1cnnc1C1(F)CCN(c2c(-c3cnc4nn(C(C)(C)C)cc4c3)ccc(Cl)c2C#N)CC1 [Example 27]
93 | Cn1cnnc1C1(F)CCN(c2c(-c3ccc(F)nc3)ccc(Cl)c2C#N)CC1 [Example 28]
78 | Cn1cnnc1C1(F)CCN(c2c(-c3ccc(F)nc3)ccc(C(F)(F)F)c2C#N)CC1 [Example 29]
19 | Cn1cnnc1C1(F)CCN(c2c(-c3cnc4nn(C(C)(C)C)cc4c3)ccc(C(F)(F)F)c2C#N)CC1 [Example 30]
77 | Cn1cnnc1C1CCN(c2c(-c3ccc(F)nc3)ccc(C(F)(F)F)c2C#N)CC1 [Example 31]
70 | Cn1cnnc1C1CCN(c2c(-c3cnc4nn(C(C)(C)C)cc4c3)ccc(C(F)(F)F)c2C#N)CC1 [Example 32]
20 | COc1ccc(-c2cnc3nn(C(C)(C)C)cc3c2)c(N2CCC(F)(c3nncn3C)CC2)c1C#N [Example 33]
16 | Cn1cnnc1C1(F)CCN(c2c(C#N)cc(C(F)(F)F)cc2-c2cnc3nc(C4(C)CC4)nn3c2)CC1 [Example 35]
8 | Cn1cnnc1C1(F)CCN(c2c(C#N)cc(C(F)(F)F)cc2-c2cnc3nn(C(F)(F)F)cc3c2)CC1 [Example 36]

Tested on: SIRPα signalling induced by A549 cells
Assay: Assay B: SIRPα signalling assay using A549 cells
Type: cell-based
Settings: Homo sapiens, 48 h compound incubation, Jurkat PathHunter SIRPaV1 reporter cells, read-out: Inhibition of SIRPα signalling induced by A549 cells: IC50
Description: as §1, §2

IC50 [nM] | Compound
8 | Cn1cnnc1C1CCN(c2c(C#N)cc(F)cc2-c2cnc3nn(C(C)(C)C)c(Cl)c3c2)CC1 [Example 26]
7 | Cn1cnnc1C1(F)CCN(c2c(-c3cnc4nn(C(C)(C)C)cc4c3)ccc(Cl)c2C#N)CC1 [Example 27]
12 | Cn1cnnc1C1(F)CCN(c2c(-c3ccc(F)nc3)ccc(Cl)c2C#N)CC1 [Example 28]
19 | Cn1cnnc1C1(F)CCN(c2c(-c3ccc(F)nc3)ccc(C(F)(F)F)c2C#N)CC1 [Example 29]
8 | Cn1cnnc1C1(F)CCN(c2c(-c3cnc4nn(C(C)(C)C)cc4c3)ccc(C(F)(F)F)c2C#N)CC1 [Example 30]
19 | Cn1cnnc1C1CCN(c2c(-c3ccc(F)nc3)ccc(C(F)(F)F)c2C#N)CC1 [Example 31]
36 | Cn1cnnc1C1CCN(c2c(-c3cnc4nn(C(C)(C)C)cc4c3)ccc(C(F)(F)F)c2C#N)CC1 [Example 32]
11 | COc1ccc(-c2cnc3nn(C(C)(C)C)cc3c2)c(N2CCC(F)(c3nncn3C)CC2)c1C#N [Example 33]
6 | Cn1cnnc1C1(F)CCN(c2c(C#N)cc(C(F)(F)F)cc2-c2cnc3nc(C4(C)CC4)nn3c2)CC1 [Example 35]
9 | Cn1cnnc1C1(F)CCN(c2c(C#N)cc(C(F)(F)F)cc2-c2cnc3nn(C(F)(F)F)cc3c2)CC1 [Example 36]

Biological target: T1, QPCT (Homo sapiens, UniProt Q16769)
T1 construct: purchased Origine (so in the source)
Assay: Assay A: biochemical QPCT activity assay (MALDI-TOF MS, CD47 peptide substrate)
Settings: 0.5 nM enzyme, 20 μM CD47 peptide substrate; read-out: Inhibition of QPCT: IC50
Description: (§3) QPCT or QPCTL dependent conversion of N-terminal glutamine to pyroglutamate of CD47 was monitored via MALDI-TOF MS. Test compounds were dissolved in 100% DMSO and serially diluted into clear 1,536-well microtiter plates. Enzymatic reactions were set up in assay buffer containing 20 mM Tris pH 7.5, 0.1 mM TCEP, 0.01% BSA, and 0.001% Tween20. […] The plates were incubated for 10 min in a humidified incubator at 24° C. Subsequently, 2.5 µL of CD47 peptide substrate surrogate (^19[…]^33) was added to each well (final concentration: 10 μM for QPCTL/20 μM for QPCT). The plates were mixed for 30 sec at 1,000 rpm and subsequently incubated for 40 min in a humidified incubator at 24° C. […] The plates were sealed with an adhesive foil, mixed for 30 s at 1,000 rpm and stored at room temperature until preparation of the MALDI target plates. MALDI target plates were prepared as described previously. […] QPCT or QPCTL activity was monitored by calculating the ratio between product and internal standard signals followed by normalization to high (100% activity) and low (0% activity) controls. Determination of compound potencies was obtained by fitting the dose-response data to a four-parameter logistical equation.

T1 sequence (Q16769 29-361): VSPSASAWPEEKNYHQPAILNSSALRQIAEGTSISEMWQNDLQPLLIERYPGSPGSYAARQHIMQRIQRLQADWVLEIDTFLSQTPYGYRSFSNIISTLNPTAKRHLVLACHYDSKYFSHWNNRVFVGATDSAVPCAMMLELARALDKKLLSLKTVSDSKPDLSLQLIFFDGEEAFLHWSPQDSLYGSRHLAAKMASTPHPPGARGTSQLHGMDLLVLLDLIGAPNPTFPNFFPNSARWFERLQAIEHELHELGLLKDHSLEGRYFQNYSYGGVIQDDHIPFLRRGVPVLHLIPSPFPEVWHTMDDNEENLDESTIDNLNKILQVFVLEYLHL

IC50 [nM] | Compound
1 | Cn1cnnc1C1CCN(c2c(C#N)cc(F)cc2-c2cnc3nn(C(C)(C)C)c(Cl)c3c2)CC1 [Example 26]
1 | Cn1cnnc1C1(F)CCN(c2c(-c3cnc4nn(C(C)(C)C)cc4c3)ccc(Cl)c2C#N)CC1 [Example 27]
2 | Cn1cnnc1C1(F)CCN(c2c(-c3ccc(F)nc3)ccc(Cl)c2C#N)CC1 [Example 28]
2 | Cn1cnnc1C1(F)CCN(c2c(-c3ccc(F)nc3)ccc(C(F)(F)F)c2C#N)CC1 [Example 29]
1 | Cn1cnnc1C1(F)CCN(c2c(-c3cnc4nn(C(C)(C)C)cc4c3)ccc(C(F)(F)F)c2C#N)CC1 [Example 30]
4 | Cn1cnnc1C1CCN(c2c(-c3ccc(F)nc3)ccc(C(F)(F)F)c2C#N)CC1 [Example 31]
2 | Cn1cnnc1C1CCN(c2c(-c3cnc4nn(C(C)(C)C)cc4c3)ccc(C(F)(F)F)c2C#N)CC1 [Example 32]
1 | COc1ccc(-c2cnc3nn(C(C)(C)C)cc3c2)c(N2CCC(F)(c3nncn3C)CC2)c1C#N [Example 33]
2 | Cn1cnnc1C1(F)CCN(c2c(C#N)cc(C(F)(F)F)cc2-c2cnc3nc(C4(C)CC4)nn3c2)CC1 [Example 35]
1 | Cn1cnnc1C1(F)CCN(c2c(C#N)cc(C(F)(F)F)cc2-c2cnc3nn(C(F)(F)F)cc3c2)CC1 [Example 36]

Tested on: not listed separately
Assay: Assay C: Permeability in CACO-2 cells
Type: in vitro ADME
Settings: human, pH 7.2; Caco-2, permeability B−A/permeability A−B
Description: Caco-2 cells (1-2×10^5 cells/1 cm^2 area) are seeded on filter inserts (Costar transwell polycarbonate or PET filters, 0.4 μm pore size) and cultured (DMEM) for 10 to 25 days. Compounds are dissolved in appropriate solvent (like DMSO, 1-20 mM stock solutions). […] The transport solution (TL) is applied to the apical or basolateral donor side for measuring A-B or B-A permeability (3 filter replicates), respectively. Samples are collected at the start and end of experiment from the donor and at various time intervals for up to 2 hours also from the receiver side for concentration measurement by HPLC-MS/MS or scintillation counting. Sampled receiver volumes are replaced with fresh receiver solution.
Efflux ratio (ER)=permeability B−A/permeability A−B

efflux ratio | Compound
3.9 | Cn1cnnc1C1CCN(c2c(C#N)cc(F)cc2-c2cnc3nn(C(C)(C)C)c(Cl)c3c2)CC1 [Example 26]
19.1 | Cn1cnnc1C1(F)CCN(c2c(-c3cnc4nn(C(C)(C)C)cc4c3)ccc(Cl)c2C#N)CC1 [Example 27]
1.7 | Cn1cnnc1C1(F)CCN(c2c(-c3ccc(F)nc3)ccc(Cl)c2C#N)CC1 [Example 28]
1.4 | Cn1cnnc1C1(F)CCN(c2c(-c3ccc(F)nc3)ccc(C(F)(F)F)c2C#N)CC1 [Example 29]
22.9 | Cn1cnnc1C1(F)CCN(c2c(-c3cnc4nn(C(C)(C)C)cc4c3)ccc(C(F)(F)F)c2C#N)CC1 [Example 30]
3.5 | Cn1cnnc1C1CCN(c2c(-c3ccc(F)nc3)ccc(C(F)(F)F)c2C#N)CC1 [Example 31]
146 | Cn1cnnc1C1CCN(c2c(-c3cnc4nn(C(C)(C)C)cc4c3)ccc(C(F)(F)F)c2C#N)CC1 [Example 32]
51.9 | COc1ccc(-c2cnc3nn(C(C)(C)C)cc3c2)c(N2CCC(F)(c3nncn3C)CC2)c1C#N [Example 33]
17.1 | Cn1cnnc1C1(F)CCN(c2c(C#N)cc(C(F)(F)F)cc2-c2cnc3nc(C4(C)CC4)nn3c2)CC1 [Example 35]
6.7 | Cn1cnnc1C1(F)CCN(c2c(C#N)cc(C(F)(F)F)cc2-c2cnc3nn(C(F)(F)F)cc3c2)CC1 [Example 36]

Same assay, conditions: human; Caco-2, apical to basolateral, pH 7.2

Papp A→B [×10⁻⁶ cm/s] | Compound
14 | Cn1cnnc1C1CCN(c2c(C#N)cc(F)cc2-c2cnc3nn(C(C)(C)C)c(Cl)c3c2)CC1 [Example 26]
2.2 | Cn1cnnc1C1(F)CCN(c2c(-c3cnc4nn(C(C)(C)C)cc4c3)ccc(Cl)c2C#N)CC1 [Example 27]
34 | Cn1cnnc1C1(F)CCN(c2c(-c3ccc(F)nc3)ccc(Cl)c2C#N)CC1 [Example 28]
53 | Cn1cnnc1C1(F)CCN(c2c(-c3ccc(F)nc3)ccc(C(F)(F)F)c2C#N)CC1 [Example 29]
1.7 | Cn1cnnc1C1(F)CCN(c2c(-c3cnc4nn(C(C)(C)C)cc4c3)ccc(C(F)(F)F)c2C#N)CC1 [Example 30]
22 | Cn1cnnc1C1CCN(c2c(-c3ccc(F)nc3)ccc(C(F)(F)F)c2C#N)CC1 [Example 31]
0.2 | Cn1cnnc1C1CCN(c2c(-c3cnc4nn(C(C)(C)C)cc4c3)ccc(C(F)(F)F)c2C#N)CC1 [Example 32]
0.8 | COc1ccc(-c2cnc3nn(C(C)(C)C)cc3c2)c(N2CCC(F)(c3nncn3C)CC2)c1C#N [Example 33]
4.8 | Cn1cnnc1C1(F)CCN(c2c(C#N)cc(C(F)(F)F)cc2-c2cnc3nc(C4(C)CC4)nn3c2)CC1 [Example 35]
5.7 | Cn1cnnc1C1(F)CCN(c2c(C#N)cc(C(F)(F)F)cc2-c2cnc3nn(C(F)(F)F)cc3c2)CC1 [Example 36]

Biological target: T2, QPCTL (Homo sapiens, UniProt Q9NXS2)
T2 construct: made in house
Assay: Assay A: biochemical QPCTL activity assay (MALDI-TOF MS, CD47 peptide substrate)
Settings: 0.5 nM enzyme, 10 μM CD47 peptide substrate; read-out: Inhibition of QPCTL: IC50
Description: as §3

T2 sequence (Q9NXS2 whole entry): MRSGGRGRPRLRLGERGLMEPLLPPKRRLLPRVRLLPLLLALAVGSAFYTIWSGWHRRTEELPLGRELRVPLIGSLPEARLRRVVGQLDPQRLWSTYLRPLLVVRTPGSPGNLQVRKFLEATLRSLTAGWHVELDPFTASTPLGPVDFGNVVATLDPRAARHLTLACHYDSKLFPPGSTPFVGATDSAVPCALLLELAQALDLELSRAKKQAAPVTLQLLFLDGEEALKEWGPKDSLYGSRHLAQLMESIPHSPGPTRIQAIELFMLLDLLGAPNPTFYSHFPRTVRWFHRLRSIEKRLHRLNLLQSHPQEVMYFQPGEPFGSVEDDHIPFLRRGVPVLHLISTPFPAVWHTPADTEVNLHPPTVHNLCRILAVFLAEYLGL

IC50 [nM] | Compound
1 | Cn1cnnc1C1CCN(c2c(C#N)cc(F)cc2-c2cnc3nn(C(C)(C)C)c(Cl)c3c2)CC1 [Example 26]
1 | Cn1cnnc1C1(F)CCN(c2c(-c3cnc4nn(C(C)(C)C)cc4c3)ccc(Cl)c2C#N)CC1 [Example 27]
2 | Cn1cnnc1C1(F)CCN(c2c(-c3ccc(F)nc3)ccc(Cl)c2C#N)CC1 [Example 28]
1 | Cn1cnnc1C1(F)CCN(c2c(-c3ccc(F)nc3)ccc(C(F)(F)F)c2C#N)CC1 [Example 29]
1 | Cn1cnnc1C1(F)CCN(c2c(-c3cnc4nn(C(C)(C)C)cc4c3)ccc(C(F)(F)F)c2C#N)CC1 [Example 30]
1 | Cn1cnnc1C1CCN(c2c(-c3ccc(F)nc3)ccc(C(F)(F)F)c2C#N)CC1 [Example 31]
2 | Cn1cnnc1C1CCN(c2c(-c3cnc4nn(C(C)(C)C)cc4c3)ccc(C(F)(F)F)c2C#N)CC1 [Example 32]
1 | COc1ccc(-c2cnc3nn(C(C)(C)C)cc3c2)c(N2CCC(F)(c3nncn3C)CC2)c1C#N [Example 33]
1 | Cn1cnnc1C1(F)CCN(c2c(C#N)cc(C(F)(F)F)cc2-c2cnc3nc(C4(C)CC4)nn3c2)CC1 [Example 35]
1 | Cn1cnnc1C1(F)CCN(c2c(C#N)cc(C(F)(F)F)cc2-c2cnc3nn(C(F)(F)F)cc3c2)CC1 [Example 36]

Source: patent publication US20240317712A1, “[…] DERIVATIVES AS INHIBITORS OF […]-PEPTIDE CYCLOTRANSFERASE AND […]-PEPTIDE CYCLOTRANSFERASE LIKE PROTEIN” (Boehringer Ingelheim International GmbH, priority 2023, published 2024)
